In the Deep4Chem optical property database one finds emission maximum data, which are given here for 34 compounds.

The data set in a line: solvent given as SMILES.
Where [1] appears, read: in O=P(c1ccccc1)(c1ccccc1)c1ccccc1Oc1ccccc1P(=O)(c1ccccc1)c1ccccc1.

`CCNc1cc2oc(=O)cc(C)c2cc1C` returned an emission maximum (in CC#N) of 420 nm.

`CC(=O)c1c2c(cc3c(N(C)C)cccc13)CCC2`: the emission maximum worked out at 480 nm (in C1CCCCC1); 543 nm (in C1CCOC1); 534 nm (in C1COCCO1); 590 nm (in CC#N); 634 nm (in CCO); 598 nm (in CS(C)=O). Moreover, the emission maximum runs as follows: (in Cc1ccccc1) 520 nm; (in ClC(Cl)Cl) 562 nm; (in ClCCl) 562 nm.

`C(=C\c1cc[n+]2ccc(/C=C/c3cc[nH]c3)cc2c1)/c1cc[nH]c1` returned an emission maximum (in CO) of 542 nm.

As to `Cc1cc(O)c(C(=O)/C=C/c2ccc(N(C)C)cc2)c(=O)o1`, the emission maximum by setting is: (in CC#N) 561 nm; (in ClCCl) 573 nm.

`C[Si]1(C)O[Si](C)(C)c2cc3nc4ccc([N+](=O)[O-])cc4c(-c4ccccc4)c3cc2[Si](C)(C)O1` came in with an emission maximum (in ClCCl) of 520 nm.

`COc1ccc(-c2ccc(-c3ccc(C#N)s3)s2)cc1`: the emission maximum (in C1CCCCC1) is 445 nm; the emission maximum (in C1COCCO1) is 455 nm; the emission maximum (in CC#N) worked out at 476 nm; the emission maximum (in CC(C)O) was 471 nm; the emission maximum (in CCCCO) is 471 nm; the emission maximum (in CCO) was 474 nm. Also, the emission maximum reads like this: (in CCOC(C)=O) 461 nm; (in CN(C)C=O) 479 nm; (in CO) 476 nm; (in CS(C)=O) 484 nm; (in Cc1ccccc1) 450 nm; (in ClC(Cl)Cl) 465 nm. Further, the emission maximum worked out at 468 nm (in ClCCl) and 529 nm (in O).

With `c1ccc(-c2nnc(-c3ccc(N4c5ccccc5N(c5ccccc5)c5ccccc54)cc3)o2)cc1`, the emission maximum worked out at 577 nm (in Cc1ccccc1) and 550 nm (in c1cc(-n2c3ccccc3c3ccccc32)cc(-n2c3ccccc3c3ccccc32)c1).

`[O-][n+]1c(/C=C/c2ccccc2)nc(N2CCOCC2)c2c1CCCC2` showed an emission maximum (in ClCCl) of 535 nm.

With `CC(C)CN1C(=O)/C(=C/c2ccc([N+](=O)[O-])cc2)C=C1c1ccccc1`, the emission maximum (in C1COCCO1) is recorded as 601 nm.

Consider `CC[n+]1c(-c2ccccc2)c2cc(N)ccc2c2ccc(-n3cccc3)cc21`, for which the emission maximum (in O) came out at 592 nm.

The compound `c1ccc(N(c2ccccc2)c2ccc(-c3ccc(-c4ccc(N(c5ccccc5)c5ccccc5)cc4)c4nsnc34)cc2)cc1` registered an emission maximum (in ClCCl) of 639 nm.

Under “in CC#N”, `Fc1nc(F)c(F)c(C#Cc2nccnc2C#Cc2c(F)c(F)nc(F)c2F)c1F` returned an emission maximum of 440 nm.

Where the note is “in C1CCCCC1”, `N#Cc1c(-c2ccccc2)cc(N2c3ccccc3Oc3ccccc32)cc1-c1ccccc1` returned an emission maximum of 455 nm.

In the case of `COc1c2ccccc2c(OC)c2c1c1cc(Cl)ccc1n2C`, the emission maximum reads like this: (in C1CCCCC1) 421 nm; (in CC#N) 432 nm; (in CO) 428 nm; (in ClCCl) 431 nm.

With `CN(C)c1ccc(-c2nc3nccnc3n2-c2ccc(N(C)C)cc2)cc1`, the emission maximum (in CC#N) is 472 nm.

With `CCN(CC)c1ccc(/C=N/C2CCCCC2/N=C/c2ccc(N(CC)CC)cc2O)c(O)c1` (stereo not drawn), the emission maximum worked out at 426 nm (in CC#N), 432 nm (in CN(C)C=O) and 461 nm (in ClCCl).

Take `CCCCN1c2ccccc2Sc2cc(/C=C\c3cc(=O)oc4cc(C)ccc34)ccc21`: the emission maximum (in ClC(Cl)Cl) is 632 nm.

Consider `c1ccc2c(c1)Oc1ccccc1N2c1ccc2c(c1)c1cc(N3c4ccccc4Oc4ccccc43)ccc1c1nc3ccccc3nc21`, for which the emission maximum (in Cc1ccccc1) was 614 nm.

Take `CCCCn1c2ccc(-c3cccs3)cc2c2c1c1c3ccc(-c4cccs4)cc3n(CCCC)c1c1c3ccc(-c4cccs4)cc3n(CCCC)c21`: the emission maximum (in C1CCOC1) worked out at 424 nm.

For `COCCC1(CCOC)c2cc(-c3ccc(OC)cc3)ccc2-c2ccc(-c3ccc4c(c3)C(CCOC)(CCOC)c3cc(-c5ccc(OC)cc5)ccc3-4)cc21`, for the setting “in CN(C)C=O”, the emission maximum was 395 nm.

On to `N#Cc1c(-n2c3ccccc3c3ccccc32)cccc1-n1c2ccccc2c2ccccc21`, for which the emission maximum is 403 nm (in Cc1ccccc1) and 415 nm under setting [1].

`CC(C)(C)c1ccc2c(c1)c1cc(C(C)(C)C)ccc1n2-c1ccc(N(c2ccc(-c3ccc(-c4ccc(-c5ccc(-c6ccc(-c7ccc(N(c8ccc(-n9c%10ccc(C(C)(C)C)cc%10c%10cc(C(C)(C)C)ccc%109)cc8)c8ccc(-n9c%10ccc(C(C)(C)C)cc%10c%10cc(C(C)(C)C)ccc%109)cc8)cc7)s6)s5)s4)s3)cc2)c2ccc(-n3c4ccc(C(C)(C)C)cc4c4cc(C(C)(C)C)ccc43)cc2)cc1` returned an emission maximum (in ClCCl) of 529 nm.

`COC(=O)c1nc(-c2cccc3ccccc23)oc1C` showed an emission maximum (in C1CCCCC1) of 340 nm, an emission maximum (in CC#N) of 343 nm, an emission maximum (in CCO) of 344 nm and an emission maximum (in CCOC(C)=O) of 342 nm.

Under “in ClC(Cl)Cl”, `CCCCCCCCC1(CCCCCCCC)c2cc(-c3ccc(C#N)cc3)ccc2-c2ccc(-c3ccc(C#N)cc3)cc21` yielded an emission maximum of 385 nm.

For the compound `O=Cc1ccc(-c2ccc(-c3nc4ccccc4s3)c(O)c2)s1`, the emission maximum reads like this: (in CCO) 540 nm; (in ClCCl) 535 nm; (in O) 557 nm.

`Cc1ccccc1C1=C2C=CC(=[N+](C)C)C=[C]2[Ge]([CH3])([CH3])[c]2cc(N(C)C)ccc21` had an emission maximum (in O) of 649 nm.

Regarding `F[B-]1(F)n2c(c3cccc4cccc2c43)=Nc2ccc3ccccc3[n+]21`, the emission maximum runs as follows: (in C1CCOC1) 508 nm; (in CC#N) 505 nm; (in CCCCCC) 502 nm; (in Cc1ccccc1) 511 nm; (in ClCCl) 536 nm.

Take `c1ccc(-n2c3ccccc3c3cc(-c4cccc(-n5c6cccnc6c6c7sc8ccccc8c7ccc65)c4)ccc32)cc1`: the emission maximum (in ClCCl) is on record as 384 nm.

Regarding `CN(C)c1ccc2c(c1)-c1ccccc1C2=O`, the emission maximum by setting is: (in C1CCCCC1) 491 nm; (in CC#N) 557 nm; (in CCO) 592 nm; (in c1ccccc1) 526 nm.

Consider `Cc1cc(-n2c3ccccc3c3cc4c(cc32)C2c3ccccc3C4c3ccccc32)c(C)cc1-c1nc(-c2ccccc2)nc(-c2ccccc2)n1`, for which the emission maximum was 427 nm (in Cc1ccccc1) and 442 nm under setting [1].

On to `COc1ccccc1C1=[N+]2C(=C(c3ccccc3)c3c4ccccc4c(-c4ccccc4OC)n3[B-]2(F)F)c2ccccc21`, for which, where the note is “in ClCCl”, the emission maximum worked out at 652 nm.

`c1ccc(N2c3ccccc3Sc3cc(-c4cccc5nc6ccccc6cc45)ccc32)cc1`: the emission maximum runs as follows: (in C1CCOC1) 476 nm; (in CC#N) 504 nm; (in CC(C)=O) 495 nm; (in CC(C)OC(C)C) 546 nm; (in CCCCCC) 487 nm; (in CCCCOCCCC) 533 nm. In addition, the emission maximum reads like this: (in CCN(CC)CC) 525 nm; (in CCOC(C)=O) 474 nm; (in CCOCC) 549 nm; (in CN(C)C=O) 495 nm; (in ClCCl) 483 nm.

In the case of `Cc1nc2c(ccc3ccccc32)oc1=O`, the emission maximum (in c1ccccc1) is recorded as 424 nm.

As to `c1ccc(-c2nc(-c3ccccc3)nc(-c3cc(-n4c5ccccc5c5ccccc54)cc(-n4c5ccccc5c5ccccc54)c3)n2)cc1`, the emission maximum amounted to 409.39 nm (in C1CCCCC1), 546.94 nm (in C1CCOC1) and 475.1 nm (in Cc1ccccc1).
